The text below walks through data of publication PMC3428805 (Journal of Medicinal Chemistry, 2012).

Where two headings read alike, the source gives them in different places.

Data set [1] deals with K562 cells. Briefly: cells. The note with it: Homo sapiens, K562, 72 h. The data set is classed as cell-based.
The nature of data set [2]: Human microsomal stability. The note with it: human microsomes, 3 µM.
Data set [3] is described as follows: Mouse microsomal stability. Conditions: mouse microsomes, 3 µM.
The nature of data set [4]: Human hepatocyte stability. The note with it: cryopreserved hepatocytes, 3 µM.
A short description of data set [5]: log P and pKa, potentiometric method.
Data set [6] is described as follows: Human plasma protein binding, equilibrium dialysis. The note with it: 50%.
Data set [7] is described as follows: Evaluation of acid stability at pH = 1 by LC-HRMS. The note with it: for hydrolysis / decomposition at pH 1.0: pH 1.0, in words. It counts as physicochemical.
The target in data set [8] is T1, Eg5 (Homo sapiens, UniProt P52732).
T1 sequence (P52732 1-368): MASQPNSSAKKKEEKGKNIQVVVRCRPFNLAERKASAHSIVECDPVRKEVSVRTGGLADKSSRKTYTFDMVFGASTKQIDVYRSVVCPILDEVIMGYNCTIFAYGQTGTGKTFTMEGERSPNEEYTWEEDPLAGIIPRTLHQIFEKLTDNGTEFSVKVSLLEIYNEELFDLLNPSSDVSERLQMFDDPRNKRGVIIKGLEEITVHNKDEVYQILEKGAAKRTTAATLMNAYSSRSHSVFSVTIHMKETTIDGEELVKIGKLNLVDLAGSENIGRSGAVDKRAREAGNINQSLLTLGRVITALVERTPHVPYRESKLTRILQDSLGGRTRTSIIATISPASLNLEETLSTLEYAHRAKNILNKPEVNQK

Data set [9] can be described thus: Parallel artificial membrane permeability assay. Conditions: passive permeability. The data set is classed as in vitro ADME.
Data set [10] can be described thus: log D7.4. The note with it: n-octanol/buffer, pH 7.4.
Setting [11] is: calculated from Ki^app of basal ATPase inhibition.

Turning to `Cc1ccc(C(CCC(N)C(=O)O)(c2ccccc2)c2ccccc2)cc1` (racemic) [rac-32, 2-Amino-5,5-diphenyl-5-(4-methylphenyl)pentanoic acid], the GI50 (as a rule, the concentration that inhibits growth by half) in data set [1] (read-out: K562 cells, GI50, 72 h, Alamar blue) was 0.098 ± 0.005 µM.

With `Cc1cccc(C(CC[C@@H](N)C(=O)O)(c2ccccc2)c2ccccc2)c1` [(R)-29], the 50% growth inhibitory concentration (GI50) in [1] (read-out: K562 cells, GI50) is 0.091 ± 0.009 µM. Besides, in data set [2], the “microsomal stability, Clint, human” value was “stable”. Further, the “microsomal stability, Clint, mice” value in data set [3] is reported as “stable”. For the same compound, the “human hepatocytes, intrinsic clearance” value in data set [4] is “stable”. Further, the pKa (usually the pH at which an ionisable group is half protonated) came out at 9.07 in data set [5] (pKa 1) and 2.55 in [5] (pKa 2). The compound also displayed a recovery at 5 µM in data set [6] of 50.1%.

Regarding `Cc1cccc(C(CC[C@H](N)C(=O)O)(c2ccccc2)c2ccccc2)c1` [(S)-29], the GI50 in [1] (read-out: K562 cells, GI50) was determined as 0.128 ± 0.015 µM. In addition, the “microsomal stability, Clint, human” value in data set [2] is “stable”. In data set [3], the “microsomal stability, Clint, mice” value was “stable”. For the same compound, the “human hepatocytes, intrinsic clearance” value in data set [4] is “stable”. In addition, the results for the pKa in data set [5] (pKa 1) and in data set [5] (pKa 2) were 9.07 and 2.55, respectively. Besides, the recovery at 5 µM in data set [6] was 52.3%.

`N[C@@H](CSC(c1ccccc1)(c1ccccc1)c1ccccc1)C(=O)O` [compound 1, S-trityl-L-cysteine, reference compound]: the “t1/2, acid stability” value in data set [7] (pH 1.0, 0-24 h, LC-HRMS) was “stable”.

On to `NCCSC(c1ccccc1)(c1ccccc1)c1ccccc1` [compound 2, 2-(Tritylsulfanyl)ethanamine], for which the ligand efficiency in data set [8] stood at 0.39.

As for `NCCOC(c1ccccc1)(c1ccccc1)c1ccccc1` [compound 6, 2-(Trityloxy)ethanamine], the “hydrolysis / decomposition at pH 1.0” value in [7] is reported as “decomposed after 16 h”.

On to `N[C@@H](CNC(c1ccccc1)(c1ccccc1)c1ccccc1)C(=O)O` [compound 7, (2 S)-2-Amino-3-(tritylamino)propanoic acid], for which the “hydrolysis / decomposition at pH 1.0” value in data set [7] was “completely hydrolyzed”.

Turning to `NCCNC(c1ccccc1)(c1ccccc1)c1ccccc1` [compound 8, N-Tritylethane-1,2-diamine], the ligand efficiency in data set [8] is 0.33. Also, in data set [7], the “hydrolysis / decomposition at pH 1.0” value is listed as “completely hydrolyzed”.

On to `NCCCC(c1ccccc1)(c1ccccc1)c1ccccc1` [compound 10, 4,4,4-Triphenylbutan-1-amine], for which, in data set [7] (5 days at pH 1.0), the “stability at pH 1.0” value is recorded as “stable”.

`NCCSC(c1ccccc1)(c1ccccc1)c1cccc(F)c1` [compound 12, 2-(((3-Fluorophenyl)(diphenyl)methyl)sulfanyl)ethanamine]: the ligand efficiency in [8] (setting [11]) is 0.36.

With `N[C@@H](CSC(c1ccccc1)(c1ccccc1)c1cccc(Cl)c1)C(=O)O` [compound 13, (2 R)-2-Amino-3-(((3-chloroxyphenyl)(diphenyl)methyl)sulfanyl)propanoic acid], in data set [8] (setting [11]), the ligand efficiency was 0.36.

With `NCCSC(c1ccccc1)(c1ccccc1)c1cccc(Cl)c1` [compound 14, 2-(((3-Chlorophenyl)(diphenyl)methyl)sulfanyl)ethanamine], in data set [8] (setting [11]), the ligand efficiency is 0.37.

In the case of `COc1cccc(C(SCCN)(c2ccccc2)c2ccccc2)c1` [compound 21, 2-(((3-Methoxyphenyl)(diphenyl)methyl)sulfanyl)ethanamine], the ligand efficiency in data set [8] (setting [11]) was 0.37.

For the compound `N[C@@H](CSC(c1ccccc1)(c1ccccc1)c1cccc(O)c1)C(=O)O` [compound 35, (2 R)-2-Amino-3-(((3-hydroxyphenyl)(diphenyl)methyl)sulfanyl)propanoic acid], in data set [9], the “PAMPA Papp” value is reported as “no permeability recorded”.

With `NC(=O)c1cccc(C(SC[C@H](N)C(=O)O)(c2ccccc2)c2ccccc2)c1` [compound 41, (R)-2-amino-3-(((3-carbamoylphenyl)diphenylmethyl)sulfanyl)propanoic acid], the “PAMPA Papp” value in [9] is listed as “no membrane diffusion detected”. In addition, the logD (as a rule, lipophilicity at a set pH, counting ionised and neutral species) in [10] was found to be 1.13.

Regarding `Cc1ccc(C(=O)N(CCCN)[C@@H](c2nc3cc(Cl)ccc3c(=O)n2Cc2ccccc2)C(C)C)cc1` [compound 54, ispinesib, reference compound], the “microsomal stability, Clint, human” value in data set [2] is reported as “stable”. Further, in [3], the “microsomal stability, Clint, mice” value is “stable”. This compound also came in with a recovery at 5 µM in data set [6] of 50.6%.
